In patent US20240287089A1, “Preparation and Uses of 7-Azaindenoisoquinolines” (Purdue Research Foundation, priority 0001, published 2024):
Like-named read-outs stand apart in the source and are kept apart here.

Key:
RAJI lymphoma cells = experiment: MTS cell viability IC50 assay; format: cell-based; details: 72 h
Procedure: Cytotoxicity Results in Raji Non-Hodgkin's Lymphoma Cells. MTS experiments were then conducted to test the anti-proliferative effects of 7-aza-8,9-methylenedioxyindenoisoquinolines in Raji cells. Cells were incubated at 2-2000 nM of each drug for 72 h, and cell viabilities were quantified using the MTS assay. […] This potency trend generally correlated with the western blot results, in which G106 and G108 […] show weaker Myc downregulation.
(§1) MTS Cell Viability IC50 Assay. Drug solutions for MTS IC50 assays of suspension cell lines were made from DMSO stocks by serial-dilutions in 1×PBS (10010-031, Gibco). To set up treatments, drug solutions were plated in triplicates to 96-well tissue culture plates, to which cell-containing media was added to a total volume of 100 μL/well. 100%-viability controls were untreated cells. 2000 cells/well were plated for all suspension cell lines except 3000 cells/well for KMS-27 and 10000 cells/well for CHLA-32. Blanks were cell-free media. Drug treatments were maintained for 72 hr at 37° C. with 5% CO2. To quantify cells, CellTiter 96 AQueous MTS Reagent Powder (G1111, Promega) was dissolved and mixed with phenazine methosulfate (PMS, Sigma-Aldrich P9625) according to manufacturer's instructions. MTS/PMS mix ([…]) was added to treatment wells, 100%-viability control wells, and blank wells. Colors were developed at 37° C. with 5% CO2 for 4 h and absorbance at 490 nm was measured by BioTek Synergy 4 system. To obtain %-viability, A490 values were corrected by blank subtraction, normalized to 100%-viability control, and averaged. Average %-viabilities were plotted against drug dosages to obtain dose-response curves. […] For adherent cell lines, the MTS IC50 assays were conducted the same way as for suspension cell lines except for cell plating and drug treatment. For cell plating, 50 μL of 2000 cells were plated in triplicates to a 96-well tissue culture plate. Cells were allowed sufficient time to become adherent. Serial-diluted drug solutions were made the same way as in the MTS IC50 assays. To set up treatments, drug solutions were mixed with media to two-fold of the final concentrations, and 50 μL of such drug-media mix was then added to 50 μL of plated cells.

RD-ES = experiment: MTS GI50, Myc-dependent panel; format: cell-based; details: 72 h
Procedure: (§2) Cytotoxicity Results in Myc-dependent Cancer Cell Lines.
as §1

TC-32 = experiment: MTS GI50, Myc-dependent panel; format: cell-based; details: Homo sapiens, TC-32, 72 h
Procedure: as §2, §1

MOLT-4 = experiment: MTS GI50, Myc-dependent panel; format: cell-based; details: Homo sapiens, MOLT-4, 72 h
Procedure: as §2, §1

HL-60 = experiment: MTS GI50, Myc-dependent panel; format: cell-based; details: Homo sapiens, HL-60, 72 h
Procedure: as §2, §1

MDA-MB-231 = experiment: MTS GI50, Myc-dependent panel; format: cell-based; details: Homo sapiens, MDA-MB-231, 72 h
Procedure: as §2, §1

ARD = experiment: MTS GI50, Myc-dependent panel; format: cell-based; details: 72 h
Procedure: as §2, §1

CCRF-CRM = experiment: MTS GI50, Myc-dependent panel; format: cell-based; details: 72 h
Procedure: as §2, §1

L-363 = experiment: MTS GI50, Myc-dependent panel; format: cell-based; details: Homo sapiens, L-363, 72 h
Procedure: as §2, §1

Kasumi-1 = experiment: MTS GI50, Myc-dependent panel; format: cell-based; details: Homo sapiens
Procedure: as §2, §1

THP-1 = experiment: MTS GI50, Myc-dependent panel; format: cell-based; details: Homo sapiens, THP-1, 72 h
Procedure: as §2, §1

CHLA-32 = experiment: MTS GI50, Myc-dependent panel; format: cell-based
Procedure: as §2, §1

KMS-27 = experiment: MTS GI50, Myc-dependent panel; format: cell-based; details: KMS-27, 72 h
Procedure: as §2, §1

SK-N-MC = experiment: MTS GI50, Myc-dependent panel; format: cell-based; details: Homo sapiens, 72 h
Procedure: as §2, §1

TC-71 = experiment: MTS GI50, Myc-dependent panel; format: cell-based; details: TC-71, 72 h
Procedure: as §2, §1

TC-106 = experiment: MTS GI50, Myc-dependent panel; format: cell-based
Procedure: as §2, §1

AMO-1 = experiment: MTS GI50, Myc-dependent panel; format: cell-based; details: Homo sapiens
Procedure: as §2, §1

MCF-7 = experiment: MTS GI50, Myc-dependent panel; format: cell-based; details: Homo sapiens
Procedure: as §2, §1

K-562 = experiment: MTS GI50, Myc-dependent panel; format: cell-based; details: Homo sapiens
Procedure: as §2, §1

RS4;11 = experiment: MTS GI50, Myc-dependent panel; format: cell-based; details: Homo sapiens
Procedure: as §2, §1

CHLA-99 = experiment: MTS GI50, Myc-dependent panel; format: cell-based
Procedure: as §2, §1

RPMI-8226 = experiment: MTS GI50, Myc-dependent panel; format: cell-based; details: Homo sapiens, RPMI-8226, 72 h
Procedure: as §2, §1

[1] = target: 3′-TAMRA-labeled MycG4 DNA; experiment: Fluorescence binding assay; details: 20° C., 100 mM K+ buffer, pH 7.0; read-out: Apparent Binding Affinity Kd, app
Procedure: Binding Affinity to the Myc G-Quadruplex. Binding affinity of eight 7-aza-8,9-methylenedioxyindenoisoquinolines to MycG4 was determined using a fluorescence binding assay with a 3′-TAMRA-labeled MycG4 DNA. Monitoring TAMRA emission upon drug titration afforded binding isotherms, from which apparent binding affinities, Kd,app, were derived.
Fluorescence-Based Binding Assays. Fluorescence-based binding assays were performed on a Jasco FP-8300 spectrofluorometer equipped with a temperature controller at 20° C. in a quartz cuvette with a 10 mm path length. 3′-TAMRA-labeled MycG4 DNA (Sigma-Aldrich) was diluted to 20 nM using a 75 mM KCl/25 mM potassium phosphate buffer, pH 7.0. […] Fluorescence intensity at 580 nm, the maximum for the free DNA, was plotted against drug:DNA ratio. The apparent binding dissociation constant, Kd,app, was derived for the binding of each compound. Using OriginPro software (OriginLab Corp., United States) the change in fluorescence intensity was fitted to a one-site binding equation,
where B0 is the initial fluorescence intensity, B is maximum change in fluorescence intensity, R is DNA concentration, and L is drug:DNA ratio.

human Topo1 = human Topo1 (Homo sapiens (Human), UniProt P11387); experiment: Topo1-mediated DNA cleavage assay; format: biochemical; details: 10 μM
Procedure: 7-Aza-8,9-methylenedioxyindenoisoquinoline compounds were examined for inhibitory effects on Topol-mediated DNA relaxation (FIG. 11A), and for Topol poison effect using Topol-Mediated DNA Cleavage Assay (FIG. 11B).
Topol-Mediated DNA Cleavage Assay. Human Topoisomerase I Assay Kit (TG1015-1A) from Topogen was used to examine the compounds for Topol poison effect. Assay was performed according to manufacturer's instructions. CPT at 10 μM was used as a positive control. […] Assay samples were incubated at 37° C. for 30 min followed by reaction termination with 10% SDS. This was followed by a 15 min Proteinase K digestion for 15 min at 37° C. to degrade Topo1 and a 1:1 volume chloroform:isoamyl alcohol DNA extraction. Samples were electrophoresed on a 1% agarose gel in TBE buffer for 2 h at 46 v. Both the agarose gel and buffer contained 0.5 μg/ml of ethidium bromide.

[2] = tested on: Myc protein in MCF-7 breast cancer cells; experiment: Western blot of Myc protein level; format: cell-based; details: MCF-7, 0.5, 1.0, 2.0 μM, 24 h
Procedure: Western blot. G-quadruplex formed in the MYC promoter functions as a transcriptional silencer. To determine the effects of 7-aza-8,9-methylenedioxyindenosioquinolines on the MYC protein level, a western blotting experiment was carried out using MCF-7 breast cancer cells. Western blot experiments were conducted to examine the downregulation effects of 7-aza-8,9-methylenedioxyindenosioquinolines on Myc protein level (FIG. 5). MCF-7 breast cancer cells were incubated for 24 h at 0, 0.5, 1.0, and 2.0 μM of G-101-108.
Western Blotting. MCF-7 cells were grown and treated in 6-well tissue culture plates. After collection, cells were suspended in 140 μL lysis buffer containing 1× RIPA buffer, 1× Protease Inhibitor Cocktail (A32965, Thermo Scientific), 1× NuPAGE LDS Sample Buffer (NP0007, Invitrogen), and 1× Sample Reducing Agent (NP0009, Invitrogen). The cell lysates were heated to 75° C. for 10 min. After sonication, 8 μL of each sample was loaded on a 4-15% Mini-PROTEAN TGX gel (4561086, Bio-Rad). […] Myc and GAPDH were detected with 1:1000-diluted monoclonal anti-Myc antibody (5605S, Cell Signaling Technology) and 1:2000-diluted monoclonal anti-GAPDH antibody (5174S, Cell Signaling Technology), respectively. Primary antibodies were detected by anti-Rabbit IgG HRP-linked antibody (7074S, Cell Signaling Technology). […]

[3] = AMO1, AMO-1, 72 h, read-out: GI50
[4] = MCF7, MCF-7, 72 h, read-out: GI50
[5] = K562, K-562, 72 h, read-out: GI50

Chain of human Topo1 (P11387 whole entry): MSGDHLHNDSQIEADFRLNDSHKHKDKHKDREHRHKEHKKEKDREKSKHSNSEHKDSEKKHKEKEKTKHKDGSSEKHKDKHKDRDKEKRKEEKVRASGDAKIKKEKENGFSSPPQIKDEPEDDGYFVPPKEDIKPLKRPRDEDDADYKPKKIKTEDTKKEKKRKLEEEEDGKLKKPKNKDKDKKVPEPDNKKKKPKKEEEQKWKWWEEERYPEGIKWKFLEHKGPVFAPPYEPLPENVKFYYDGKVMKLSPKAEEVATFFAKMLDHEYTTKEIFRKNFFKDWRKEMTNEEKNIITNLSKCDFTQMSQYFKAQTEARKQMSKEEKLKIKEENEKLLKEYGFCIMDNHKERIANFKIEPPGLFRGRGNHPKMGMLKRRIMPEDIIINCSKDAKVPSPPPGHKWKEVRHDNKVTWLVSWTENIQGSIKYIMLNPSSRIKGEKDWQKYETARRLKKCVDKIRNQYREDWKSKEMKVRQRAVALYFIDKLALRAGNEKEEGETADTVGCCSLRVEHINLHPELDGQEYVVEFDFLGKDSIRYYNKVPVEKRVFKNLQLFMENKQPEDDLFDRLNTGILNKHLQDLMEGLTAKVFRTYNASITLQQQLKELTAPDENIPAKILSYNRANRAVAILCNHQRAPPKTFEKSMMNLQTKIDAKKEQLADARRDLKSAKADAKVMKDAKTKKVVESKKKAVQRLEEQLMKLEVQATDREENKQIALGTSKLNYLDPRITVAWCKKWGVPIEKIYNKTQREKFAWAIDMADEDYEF

## COc1cc2c3c(n(CCCn4ccnc4)c(=O)c2cc1OC)-c1cc2c(cc1C3=O)OCO2 [LMP776, indimitecan]
RAJI lymphoma cells; Homo sapiens, Raji
  IC50: 92 nM
RD-ES; read-out: GI50
  GI50: 227 nM
TC-32; read-out: GI50
  GI50: 179 nM
MOLT-4; read-out: GI50
  GI50: 42 nM
HL-60; read-out: GI50
  GI50: 894 nM
MDA-MB-231; read-out: GI50
  GI50: 329 nM
ARD; ARD, read-out: GI50
  GI50: 33 nM
CCRF-CRM; CCRF-CRM, read-out: GI50
  GI50: 70 nM
L-363; read-out: GI50
  GI50: 53 nM
Kasumi-1; Kasumi-1, 72 h, read-out: GI50
  GI50: 533 nM
THP-1; read-out: GI50
  GI50: 273 nM
CHLA-32; CHLA-32, 72 h, read-out: GI50
  GI50: 93 nM
KMS-27; read-out: GI50
  GI50: 127 nM
SK-N-MC; read-out: GI50
  GI50: 225 nM
TC-71; read-out: GI50
  GI50: 232 nM
TC-106; TC-106, 72 h, read-out: GI50
  GI50: 250 nM
AMO-1; [3]
  GI50: 191 nM
MCF-7; [4]
  GI50: > 2000 nM
K-562; [5]
  GI50: 341 nM
RS4;11; RS4;11, 72 h, read-out: GI50
  GI50: 59 nM
CHLA-99; CHLA-99, 72 h, read-out: GI50
  GI50: 276 nM
RPMI-8226; read-out: GI50
  GI50: 139 nM
[1]
  Kd: 69 nM

## COc1cc2c3c(n(CCCN4CCC[C@H]4C(N)=O)c(=O)c2cc1OC)-c1nc2c(cc1C3=O)OCO2 [G106, (S)-1-(3-(2,3-dimethoxy-5,12-dioxo-5,12-dihydro-6H-[1,3]dioxolo [4″,5″:5′,6′]pyrido[3′,2′:4,5]cyclopenta[1,2-c]isoquinolin-6-yl)propyl)pyrrolidine-2-carboxamide]
RAJI lymphoma cells; RAJI
  IC50: 1980 nM
[1]
  Kd: 55 nM

## CC[C@@]1(O)C(=O)OCc2c1cc1n(c2=O)Cc2cc3ccccc3nc2-1 [CPT, Camptothecin]
RD-ES; read-out: GI50
  GI50: 5 nM
TC-32; read-out: GI50
  GI50: 7 nM
MOLT-4; read-out: GI50
  GI50: < 2 nM
HL-60; read-out: GI50
  GI50: 27 nM
MDA-MB-231; read-out: GI50
  GI50: 37 nM
ARD; ARD, read-out: GI50
  GI50: 11 nM
CCRF-CRM; CCRF-CRM, read-out: GI50
  GI50: 4 nM
L-363; read-out: GI50
  GI50: 10 nM
Kasumi-1; Kasumi-1, 72 h, read-out: GI50
  GI50: 85 nM
THP-1; read-out: GI50
  GI50: 55 nM
CHLA-32; CHLA-32, 72 h, read-out: GI50
  GI50: 6 nM
KMS-27; read-out: GI50
  GI50: 13 nM
SK-N-MC; read-out: GI50
  GI50: 9 nM
TC-71; read-out: GI50
  GI50: 8 nM
TC-106; TC-106, 72 h, read-out: GI50
  GI50: 11 nM
AMO-1; [3]
  GI50: 20 nM
MCF-7; [4]
  GI50: 200 nM
K-562; [5]
  GI50: 22 nM
RS4;11; RS4;11, 72 h, read-out: GI50
  GI50: 6 nM
CHLA-99; CHLA-99, 72 h, read-out: GI50
  GI50: 4 nM
RPMI-8226; read-out: GI50
  GI50: 14 nM

## COc1cc2c3c(n(CCCN4CCCC4)c(=O)c2cc1OC)-c1nc2c(cc1C3=O)OCO2 [G108, 2,3-Dimethoxy-6-(3-(pyrrolidin-1-yl)propyl)-5H-[1,3]dioxolo[4″,5″:5′,6′]pyrido[3′,2′:4,5]cyclopenta[1,2-c]isoquinoline-5,12(6H)-dione]
Human Topo1
  inhibition of DNA relegation (Top1 poison effect): minimal effects on DNA relegation
RAJI lymphoma cells; RAJI
  IC50: 1710 nM
[2]
  Myc protein level (Western blot): weak Myc downregulation

## COc1cc2c3c(n(CCCNCCO)c(=O)c2cc1OC)-c1cc2c(cc1C3=O)OCO2 [LMP517]
RAJI lymphoma cells; Homo sapiens, Raji
  IC50: 53 nM
RD-ES
  GI50: 9 nM
TC-32
  GI50: 12 nM
MOLT-4
  GI50: 3 nM
HL-60
  GI50: 137 nM
MDA-MB-231
  GI50: 319 nM
ARD
  GI50: 27 nM
CCRF-CRM
  GI50: 11 nM
L-363
  GI50: 42 nM
Kasumi-1; Kasumi 1, 72 h
  GI50: 148 nM
THP-1
  GI50: 93 nM
CHLA-32; 72 h
  GI50: 37 nM
KMS-27
  GI50: 44 nM
SK-N-MC
  GI50: 62 nM
TC-71
  GI50: 58 nM
TC-106; 72 h
  GI50: 51 nM
AMO-1; AMO1, 72 h
  GI50: 69 nM
MCF-7; MCF7, 72 h
  GI50: 418 nM
K-562; K562, 72 h
  GI50: 74 nM
RS4;11; RS4-11, 72 h
  GI50: 7 nM
CHLA-99; 72 h
  GI50: 44 nM
RPMI-8226
  GI50: 82 nM
[1]
  Kd: 109 nM
